Among the data in PubChem BioAssay (NCI) are TGI and GI50 values, retold here.

Some test systems named below: IGROV1 ovarian; HCC-2998 colon; OVCAR-3 ovarian; KM12 colon; K-562 leukemia; OVCAR-4 ovarian; RPMI-8226 leukemia; M14 melanoma; HCT-15 colon; NCI-H23 lung.
What all share (experiment): NCI anticancer screen, dose series, 48 h

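A five-concentration, 48-hour dose response in 96-well plates underlies each endpoint, interpolated linearly between surrounding concentrations. GI50 is the concentration that inhibits growth by half. TGI marks complete inhibition of growth.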

As for `Cc1ccc(C)c(N2C(=O)C(=O)C(c3nc4ccccc4s3)/C(=N/N)C2=O)c1` (stereo not given), the TGI with IGROV1 ovarian, in the assay on HCC-2998 colon, in the assay with OVCAR-3 ovarian, in the assay on KM12 colon, in the assay on K-562 leukemia and in the assay on OVCAR-4 ovarian was above 100 µM in each case. The TGI with RPMI-8226 leukemia, in the assay on M14 melanoma, in the assay on HCT-15 colon and in the assay on NCI-H23 lung was above 100 µM each time.
For the compound `CSc1ccc2c(cc1=O)[C@@H](NC(=O)c1cccc([N+](=O)[O-])c1)CCc1cc(O)c(O)c(O)c1-2`, the TGI in the assay on IGROV1 ovarian is above 100 µM; in the assay on HCC-2998 colon, above 100 µM; with OVCAR-3 ovarian, above 100 µM; in the assay with KM12 colon, above 100 µM; in the assay on K-562 leukemia it was 77.6 µM; with OVCAR-4 ovarian it was above 100 µM. Besides, the TGI with RPMI-8226 leukemia, in the assay on M14 melanoma, in the assay on HCT-15 colon and with NCI-H23 lung was above 100 µM each time.
Regarding `NCCSSCc1ccccc1CSSCCN`, the TGI with IGROV1 ovarian was above 100 µM; with HCC-2998 colon it was above 100 µM; with OVCAR-3 ovarian, above 100 µM; with KM12 colon, above 100 µM; with K-562 leukemia it was 43.4 µM; in the assay on OVCAR-4 ovarian, above 100 µM. Besides, the TGI with RPMI-8226 leukemia, with M14 melanoma, in the assay with HCT-15 colon and in the assay with NCI-H23 lung was above 100 µM throughout.
Take `O=C1N[C@@H]2[C@@H](O)[C@@H](O)[C@H](O)C[C@H]2c2cc3c(c(O)c21)OCCO3`: the GI50 was 0.389 µM in the assay with IGROV1 ovarian; 0.227 µM in the assay on HCC-2998 colon; 0.276 µM in the assay on OVCAR-3 ovarian; 0.169 µM in the assay with KM12 colon; 0.13 µM in the assay on K-562 leukemia; 0.217 µM in the assay on OVCAR-4 ovarian. For the same compound, the GI50 in the assay on RPMI-8226 leukemia is 0.256 µM; in the assay on M14 melanoma, 0.246 µM; in the assay with HCT-15 colon, 0.27 µM; with NCI-H23 lung, 0.238 µM. Also, the TGI with IGROV1 ovarian is 3.13 µM; in the assay with HCC-2998 colon it was 0.765 µM; with OVCAR-3 ovarian it was 1.01 µM; in the assay with KM12 colon, 1.1 µM; in the assay with K-562 leukemia it was 11.2 µM; in the assay with OVCAR-4 ovarian it was 0.838 µM. Further, the TGI amounted to 0.91 µM with RPMI-8226 leukemia, 1.04 µM in the assay on M14 melanoma, 1.8 µM in the assay on HCT-15 colon and 0.915 µM with NCI-H23 lung.
As for `Cc1c(C)c2ccc3oc4ccccc4c3c2oc1=O`, the TGI with IGROV1 ovarian, with HCC-2998 colon, in the assay with OVCAR-3 ovarian, with KM12 colon, in the assay on K-562 leukemia and in the assay with OVCAR-4 ovarian was above 100 µM each time. In addition, the TGI with RPMI-8226 leukemia, in the assay with M14 melanoma, in the assay on HCT-15 colon and with NCI-H23 lung was above 100 µM in each case.
Take `COc1ccc(/C=C\c2cc(OC)c(OC)c(OC)c2)cc1OCC(=O)Nc1nc2ccc(F)cc2s1`: the GI50 in the assay on IGROV1 ovarian was 4.17 µM; with HCC-2998 colon, above 100 µM; with OVCAR-3 ovarian it was 9.99 µM; in the assay with KM12 colon it was 4.78 µM; in the assay with K-562 leukemia, 3.62 µM; in the assay with OVCAR-4 ovarian, 7.3 µM. The GI50 in the assay with RPMI-8226 leukemia was 6.36 µM; in the assay on M14 melanoma it was 6.82 µM; with HCT-15 colon it was 8.19 µM; in the assay with NCI-H23 lung, 4.26 µM. In addition, the TGI in the assay on IGROV1 ovarian, in the assay on HCC-2998 colon, with OVCAR-3 ovarian, in the assay with KM12 colon, in the assay with K-562 leukemia and in the assay on OVCAR-4 ovarian was above 100 µM each time. Further, the TGI with RPMI-8226 leukemia, with M14 melanoma, in the assay on HCT-15 colon and with NCI-H23 lung was above 100 µM throughout.
Turning to `CC(C)(C)C(=O)OCOP(=O)(NCc1ccccc1)C1CCCN(O)C1=O` (stereo not given), the GI50 was 2.91 µM in the assay on IGROV1 ovarian; 2.37 µM in the assay on HCC-2998 colon; 1.04 µM with OVCAR-3 ovarian; 1.13 µM in the assay with KM12 colon; 1.13 µM in the assay on K-562 leukemia; 2.1 µM in the assay with OVCAR-4 ovarian. Further, the GI50 is 2.25 µM in the assay with RPMI-8226 leukemia, 2.91 µM with M14 melanoma, 2.75 µM in the assay on HCT-15 colon and 2.77 µM with NCI-H23 lung. For the same compound, the TGI in the assay with IGROV1 ovarian is 9.59 µM; in the assay with HCC-2998 colon, 12 µM; in the assay on OVCAR-3 ovarian it was 9 µM; with KM12 colon it was 3.56 µM; in the assay with K-562 leukemia, above 100 µM; in the assay with OVCAR-4 ovarian, 71.9 µM. In addition, the TGI was 7.28 µM with RPMI-8226 leukemia, 18.7 µM in the assay with M14 melanoma, 25.9 µM with HCT-15 colon and 13.4 µM in the assay with NCI-H23 lung.
For the compound `COc1ccc2c(c1)C(=O)c1c-2n(CCCN(C)C)c(=O)c2ccccc12`, the GI50 in the assay with IGROV1 ovarian is 0.344 µM; in the assay on HCC-2998 colon, 0.187 µM; in the assay on OVCAR-3 ovarian, 0.551 µM; in the assay on KM12 colon, 0.412 µM; in the assay on K-562 leukemia it was 0.287 µM; in the assay with OVCAR-4 ovarian it was 0.808 µM. For the same compound, the GI50 is 0.165 µM with RPMI-8226 leukemia, 0.483 µM with M14 melanoma, 0.25 µM in the assay with HCT-15 colon and 0.318 µM with NCI-H23 lung. In addition, the TGI in the assay with IGROV1 ovarian came to 12.3 µM; with HCC-2998 colon it was 0.955 µM; in the assay on OVCAR-3 ovarian, 7.85 µM; with KM12 colon it was 5.25 µM; in the assay with K-562 leukemia, 17.5 µM; with OVCAR-4 ovarian, 6.87 µM. In addition, the TGI in the assay with RPMI-8226 leukemia was determined as 0.532 µM; with M14 melanoma, 1.87 µM; with HCT-15 colon, 3.95 µM; in the assay on NCI-H23 lung, 1.31 µM.
For `Clc1c(Cl)[n+](Cc2ccc3ccccc3c2)cn1Cc1ccc2ccccc2c1`, the GI50 in the assay on IGROV1 ovarian was 1.33 µM; with HCC-2998 colon it was 1.53 µM; in the assay on OVCAR-3 ovarian it was 1.34 µM; in the assay on KM12 colon, 1.53 µM; in the assay on K-562 leukemia, 1.71 µM; with OVCAR-4 ovarian, 1.36 µM. Moreover, the GI50 in the assay on RPMI-8226 leukemia is 1.25 µM; in the assay with M14 melanoma, 1.21 µM; in the assay with HCT-15 colon, 1.82 µM; in the assay with NCI-H23 lung, 1.35 µM. The TGI amounted to 2.93 µM in the assay with IGROV1 ovarian; 3.05 µM with HCC-2998 colon; 2.69 µM in the assay with OVCAR-3 ovarian; 3.05 µM in the assay with KM12 colon; 3.73 µM in the assay with K-562 leukemia; 3 µM with OVCAR-4 ovarian. Moreover, the TGI amounted to 3.55 µM with RPMI-8226 leukemia, 2.8 µM with M14 melanoma, 3.62 µM in the assay on HCT-15 colon and 3.15 µM in the assay on NCI-H23 lung.
